# Tested on: recombinant NL4-3 virus (Renilla luciferase in nef, Gag P373S)
# Test: HIV cell culture assay (luciferase activity in MT-2 cells infected with NLRluc recombinant virus)
# Type: cell-based
# Details: NL43, MT-2 cells infected 4-5 days with NLRluc recombinant virus
# Method in brief: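 MT-2 cells in RPMI/10% FBS were infected with recombinant NL4-3 (NLRluc), produced by 293T transfection and titered in MT-2 by luciferase. Serial inhibitor dilutions were present throughout a 4–5 day infection. Antiviral activity was quantified as Renilla luciferase signal via a modified Dual Luciferase read.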
Compound,EC50 (class symbol) [nM],EC50 (numeric value) [nM]
"C=C(C)[C@@H]1CC[C@]2(CNC(=O)[C@@H]3CCCN3)CC[C@]3(C)[C@H](CC[C@@H]4[C@@]5(C)CC=C(c6ccc(C(=O)O)cc6)C(C)(C)[C@@H]5CC[C@]43C)[C@@H]12 [Example 136, 4-((1R,3aS,5aR,5bR,7aR,11aS,11bR,13aR,13bR)-5a,5b,8,8,11a-pentamethyl-1-(prop-1-en-2-yl)-3a-(((S)-pyrrolidine-2-carboxamido)methyl)-2,3,3a,4,5,5a,5b,6,7,7a,8,11,11a,11b,12,13,13a,13b-octadecahydro-1H-cyclopenta[a]chrysen-9-yl)benzoic acid]",< 100,
"C=C(C)[C@@H]1CC[C@]2(CNCCC(=O)N3CCC[C@H]3C(=O)OC)CC[C@]3(C)[C@H](CC[C@@H]4[C@@]5(C)CC=C(c6ccc(C(=O)O)cc6)C(C)(C)[C@@H]5CC[C@]43C)[C@@H]12 [Example 101, 4-((1R,3aS,5aR,5bR,7aR,11aS,11bR,13aR,13bR)-3a-((3-((S)-2-(methoxycarbonyl)pyrrolidin-1-yl)-3-oxopropylamino)methyl)-5a,5b,8,8,11a-pentamethyl-1-(prop-1-en-2-yl)-2,3,3a,4,5,5a,5b,6,7,7a,8,11,11a,11b,12,13,13a,13b-octadecahydro-1H-cyclopenta[a]chrysen-9-yl)benzoic acid]",< 100,
"C=C(C)[C@@H]1CC[C@]2(CNCCCn3ccnc3)CC[C@]3(C)[C@H](CC[C@@H]4[C@@]5(C)CC=C(c6ccc(C(=O)O)cc6)C(C)(C)[C@@H]5CC[C@]43C)[C@@H]12 [Example 55, 4-((1R,3aS,5aR,5bR,7aR,11aS,11bR,13aR,13bR)-3a-((3-(1H-imidazol-1-yl)propylamino)methyl)-5a,5b,8,8,11a-pentamethyl-1-(prop-1-en-2-yl)-2,3,3a,4,5,5a,5b,6,7,7a,8,11,11a,11b,12,13,13a,13b-octadecahydro-1H-cyclopenta[a]chrysen-9-yl)benzoic acid]",< 100,
"C=C(C)[C@@H]1CC[C@]2(CNC(=O)NCCCN3CCCC3=O)CC[C@]3(C)[C@H](CC[C@@H]4[C@@]5(C)CC=C(c6ccc(C(=O)O)cc6)C(C)(C)[C@@H]5CC[C@]43C)[C@@H]12 [Example 155, 4-((1R,3aS,5aR,5bR,7aR,11aS,11bR,13aR,13bR)-5a,5b,8,8,11a-pentamethyl-3a-((3-(3-(2-oxopyrrolidin-1-yl)propyl)ureido)methyl)-1-(prop-1-en-2-yl)-2,3,3a,4,5,5a,5b,6,7,7a,8,11,11a,11b,12,13,13a,13b-octadecahydro-1H-cyclopenta[a]chrysen-9-yl)benzoic acid]",< 100,
"C=C(C)[C@@H]1CC[C@]2(CNCCN3CCCCC3)CC[C@]3(C)[C@H](CC[C@@H]4[C@@]5(C)CC=C(c6ccc(C(=O)O)cc6)C(C)(C)[C@@H]5CC[C@]43C)[C@@H]12 [Example 9, 4-((1R,3aS,5aR,5bR,7aR,11aS,11bR,13aR,13bR)-5a,5b,8,8,11a-pentamethyl-3a-((2-(piperidin-1-yl)ethylamino)methyl)-1-(prop-1-en-2-yl)-2,3,3a,4,5,5a,5b,6,7,7a,8,11,11a,11b,12,13,13a,13b-octadecahydro-1H-cyclopenta[a]chrysen-9-yl)benzoic acid]",< 100,
"C=C(C)[C@@H]1CC[C@]2(CNCCC(=O)NCCC(=O)N(C)C)CC[C@]3(C)[C@H](CC[C@@H]4[C@@]5(C)CC=C(c6ccc(C(=O)O)cc6)C(C)(C)[C@@H]5CC[C@]43C)[C@@H]12 [Example 99, 4-((1R,3aS,5aR,5bR,7aR,11aS,11bR,13aR,13bR)-3a-((3-(3-(dimethylamino)-3-oxopropylamino)-3-oxopropylamino)methyl)-5a,5b,8,8,11a-pentamethyl-1-(prop-1-en-2-yl)-2,3,3a,4,5,5a,5b,6,7,7a,8,11,11a,11b,12,13,13a,13b-octadecahydro-1H-cyclopenta[a]chrysen-9-yl)benzoic acid]",< 100,
"C=C(C)[C@@H]1CC[C@]2(CNC(=O)OCCN3CCS(=O)(=O)CC3)CC[C@]3(C)[C@H](CC[C@@H]4[C@@]5(C)CC=C(c6ccc(C(=O)O)cc6)C(C)(C)[C@@H]5CC[C@]43C)[C@@H]12 [Example 165, 4-((1R,3aS,5aR,5bR,7aR,11aS,11bR,13aR,13bR)-3a-((((2-(1,1-dioxido-4-thiomorpholinyl)ethoxy)carbonyl)amino)methyl)-1-isopropenyl-5a,5b,8,8,11a-pentamethyl-2,3,3a,4,5,5a,5b,6,7,7a,8,11,11a,11b,12,13,13a,13b-octadecahydro-1H-cyclopenta[a]chrysen-9-yl)benzoic acid]",< 100,
"C=C(C)[C@@H]1CC[C@]2(CNCC(=O)N3CCN(S(=O)(=O)N(C)C)CC3)CC[C@]3(C)[C@H](CC[C@@H]4[C@@]5(C)CC=C(c6ccc(C(=O)O)cc6)C(C)(C)[C@@H]5CC[C@]43C)[C@@H]12 [Example 113, 4-((1R,3aS,5aR,5bR,7aR,11aS,11bR,13aR,13bR)-3a-((2-(4-(N,N-dimethylsulfamoyl)piperazin-1-yl)-2-oxoethylamino)methyl)-5a,5b,8,8,11a-pentamethyl-1-(prop-1-en-2-yl)-2,3,3a,4,5,5a,5b,6,7,7a,8,11,11a,11b,12,13,13a,13b-octadecahydro-1H-cyclopenta[a]chrysen-9-yl)benzoic acid]",< 100,
"CC(C)[C@@H]1CC[C@]2(CNCCCN3CCS(=O)(=O)CC3)CC[C@]3(C)[C@H](CC[C@@H]4[C@@]5(C)CC=C(c6ccc(C(=O)O)cc6)C(C)(C)[C@@H]5CC[C@]43C)[C@@H]12 [Example 37, 4-((1R,3aS,5aR,5bR,7aR,11aS,11bR,13aR,13bR)-5a,5b,8,8,11a-pentamethyl-1-(prop-1-en-2-yl)-3a-((3-(1-dioxo-thiomorpholino)propylamino)methyl)-2,3,3a,4,5,5a,5b,6,7,7a,8,11,11a,11b,12,13,13a,13b-octadecahydro-1H-cyclopenta[a]chrysen-9-yl)benzoic acid]",< 100,
C=C(C)[C@@H]1CC[C@]2(CNCc3ccc(S(N)(=O)=O)cc3)CC[C@]3(C)[C@H](CC[C@@H]4[C@@]5(C)CC=C(c6ccc(C(=O)O)cc6)C(C)(C)[C@@H]5CC[C@]43C)[C@@H]12 [Example 35],< 100,
"C=C(C)[C@@H]1CC[C@]2(CNCCN3CCCC3=O)CC[C@]3(C)[C@H](CC[C@@H]4[C@@]5(C)CC=C(c6ccc(C(=O)O)c(F)c6)C(C)(C)[C@@H]5CC[C@]43C)[C@@H]12 [Example 91, 2-fluoro-4-((1R,3aS,5aR,5bR,7aR,11aS,11bR,13aR,13bR)-5a,5b,8,8,11a-pentamethyl-3a-((2-(2-oxopyrrolidin-1-yl)ethylamino)methyl)-1-(prop-1-en-2-yl)-2,3,3a,4,5,5a,5b,6,7,7a,8,11,11a,11b,12,13,13a,13b-octadecahydro-1H-cyclopenta[a]chrysen-9-yl)benzoic acid]",< 100,
"C=C(C)[C@@H]1CC[C@]2(CNCCC(=O)N3CCCC3)CC[C@]3(C)[C@H](CC[C@@H]4[C@@]5(C)CC=C(c6ccc(C(=O)O)cc6)C(C)(C)[C@@H]5CC[C@]43C)[C@@H]12 [Example 70, 4-((1R,3aS,5aR,5bR,7aR,11aS,11bR,13aR,13bR)-5a,5b,8,8,11a-pentamethyl-3a-((3-oxo-3-(pyrrolidin-1-yl)propylamino)methyl)-1-(prop-1-en-2-yl)-2,3,3a,4,5,5a,5b,6,7,7a,8,11,11a,11b,12,13,13a,13b-octadecahydro-1H-cyclopenta[a]chrysen-9-yl)benzoic acid]",< 100,
"C=C(C)[C@@H]1CC[C@]2(CNCCC(=O)OC)CC[C@]3(C)[C@H](CC[C@@H]4[C@@]5(C)CC=C(c6ccc(C(=O)O)cc6)C(C)(C)[C@@H]5CC[C@]43C)[C@@H]12 [Example 176, 4-((1R,3aS,5aR,5bR,7aR,11aS,11bR,13aR,13bR)-3a-((3-methoxy-3-oxopropylamino)methyl)-5a,5b,8,8,11a-pentamethyl-1-(prop-1-en-2-yl)-2,3,3a,4,5,5a,5b,6,7,7a,8,11,11a,11b,12,13,13a,13b-octadecahydro-1H-cyclopenta[a]chrysen-9-yl)benzoic acid]",,14
"C=C(C)[C@@H]1CC[C@]2(CNC(CC(=O)O)C(=O)N3CCC(F)(F)C3)CC[C@]3(C)[C@H](CC[C@@H]4[C@@]5(C)CC=C(c6ccc(C(=O)O)cc6)C(C)(C)[C@@H]5CC[C@]43C)[C@@H]12 (stereo partly drawn) [Example 131, 4-((1R,3aS,5aR,5bR,7aR,11aS,11bR,13aR,13bR)-3a-((3-carboxy-1-(3,3-difluoropyrrolidin-1-yl)-1-oxopropan-2-ylamino)methyl)-5a,5b,8,8,11a-pentamethyl-1-(prop-1-en-2-yl)-2,3,3a,4,5,5a,5b,6,7,7a,8,11,11a,11b,12,13,13a,13b-octadecahydro-1H-cyclopenta[a]chrysen-9-yl)benzoic acid]",< 100,
"C=C(C)[C@@H]1CC[C@]2(CNCC(=O)O)CC[C@]3(C)[C@H](CC[C@@H]4[C@@]5(C)CC=C(c6ccc(C(=O)O)cc6)C(C)(C)[C@@H]5CC[C@]43C)[C@@H]12 [Example 31, 4-((1R,3aS,5aR,5bR,7aR,11aS,11bR,13aR,13bR)-3a-((carboxymethylamino)methyl)-5a,5b,8,8,11a-pentamethyl-1-(prop-1-en-2-yl)-2,3,3a,4,5,5a,5b,6,7,7a,8,11,11a,11b,12,13,13a,13b-octadecahydro-1H-cyclopenta[a]chrysen-9-yl)benzoic acid]",< 100,
"C=C(C)[C@@H]1CC[C@]2(CNCCS(=O)(=O)N3CCNCC3)CC[C@]3(C)[C@H](CC[C@@H]4[C@@]5(C)CC=C(c6ccc(C(=O)O)cc6)C(C)(C)[C@@H]5CC[C@]43C)[C@@H]12 [Example 43, 4-((1R,3aS,5aR,5bR,7aR,11aS,11bR,13aR,13bR)-5a,5b,8,8,11a-pentamethyl-3a-((2-(piperazin-1-ylsulfonyl)ethylamino)methyl)-1-(prop-1-en-2-yl)-2,3,3a,4,5,5a,5b,6,7,7a,8,11,11a,11b,12,13,13a,13b-octadecahydro-1H-cyclopenta[a]chrysen-9-yl)benzoic acid]",< 100,
